Series [1] has as its target T1, AtHEX1 (Arabidopsis thaliana, UniProt Q8L7S6).
T1 sequence (Q8L7S6 25-535 limits assumed): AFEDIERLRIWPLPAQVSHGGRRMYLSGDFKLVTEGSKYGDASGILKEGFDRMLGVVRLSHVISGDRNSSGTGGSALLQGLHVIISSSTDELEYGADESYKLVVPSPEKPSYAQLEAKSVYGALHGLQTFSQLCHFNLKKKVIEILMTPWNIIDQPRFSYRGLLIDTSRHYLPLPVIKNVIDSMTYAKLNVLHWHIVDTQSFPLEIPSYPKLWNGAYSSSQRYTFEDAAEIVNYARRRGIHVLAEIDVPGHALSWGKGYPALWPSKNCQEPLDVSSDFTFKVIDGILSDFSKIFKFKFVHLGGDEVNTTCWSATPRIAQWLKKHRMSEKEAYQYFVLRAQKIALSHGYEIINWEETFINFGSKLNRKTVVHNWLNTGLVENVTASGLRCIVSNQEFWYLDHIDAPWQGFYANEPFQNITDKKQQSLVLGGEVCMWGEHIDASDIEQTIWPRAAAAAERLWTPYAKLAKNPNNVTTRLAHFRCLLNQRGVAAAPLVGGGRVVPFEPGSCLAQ
Kind of series: p-nitrophenylglycoside hydrolysis assay, single concentration. The series is classed as biochemical. The conditions noted are these: read-out: % inhibition at 0.1 mM.

For another series, the target named is T2, HEX-1 (Caenorhabditis elegans, UniProt Q22492).
T2 sequence (Q22492 19-555 limits assumed): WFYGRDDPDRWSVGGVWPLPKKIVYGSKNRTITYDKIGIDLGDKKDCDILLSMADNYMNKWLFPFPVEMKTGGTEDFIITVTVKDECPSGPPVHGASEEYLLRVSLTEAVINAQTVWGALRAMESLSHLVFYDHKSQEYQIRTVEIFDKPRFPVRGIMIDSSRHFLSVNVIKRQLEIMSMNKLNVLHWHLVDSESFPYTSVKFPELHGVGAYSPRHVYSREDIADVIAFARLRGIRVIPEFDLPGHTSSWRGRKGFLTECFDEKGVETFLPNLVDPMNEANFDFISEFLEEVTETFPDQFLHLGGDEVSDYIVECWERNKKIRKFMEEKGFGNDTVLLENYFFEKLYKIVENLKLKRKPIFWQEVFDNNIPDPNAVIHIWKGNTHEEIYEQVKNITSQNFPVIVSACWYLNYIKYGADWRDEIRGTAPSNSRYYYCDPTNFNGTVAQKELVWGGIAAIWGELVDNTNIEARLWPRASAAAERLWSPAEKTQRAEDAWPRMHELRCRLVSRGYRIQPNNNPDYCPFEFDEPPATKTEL
Kind of series: p-nitrophenylglycoside hydrolysis assay, Dixon plot. The class given is biochemical.

For series [2], the target named is T1, AtHEX1. The series can be described thus: p-nitrophenylglycoside hydrolysis assay. The series is classed as biochemical.
In a further series the target is T3, HEX-2 (Caenorhabditis elegans, UniProt G5EFL1).
T3 sequence (G5EFL1 36-596 limits assumed): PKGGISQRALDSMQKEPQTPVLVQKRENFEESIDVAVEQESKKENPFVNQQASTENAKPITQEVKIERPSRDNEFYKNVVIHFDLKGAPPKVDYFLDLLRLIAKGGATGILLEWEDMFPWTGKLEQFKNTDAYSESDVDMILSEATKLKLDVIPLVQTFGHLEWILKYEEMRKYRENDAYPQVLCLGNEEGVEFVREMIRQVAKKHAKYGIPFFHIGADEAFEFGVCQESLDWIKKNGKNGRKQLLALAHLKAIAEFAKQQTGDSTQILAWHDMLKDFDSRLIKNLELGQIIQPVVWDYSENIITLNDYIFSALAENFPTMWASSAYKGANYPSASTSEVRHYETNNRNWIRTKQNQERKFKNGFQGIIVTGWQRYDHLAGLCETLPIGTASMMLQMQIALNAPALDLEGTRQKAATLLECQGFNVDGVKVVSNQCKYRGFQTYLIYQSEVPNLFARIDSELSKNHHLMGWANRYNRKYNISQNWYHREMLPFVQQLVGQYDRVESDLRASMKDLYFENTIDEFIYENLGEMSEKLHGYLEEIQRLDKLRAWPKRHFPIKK
The series can be described thus: GnGn-PA digestion, RP-HPLC. The class given is biochemical. The conditions noted are these: read-out: % inhibition at 200 μM.

For another series, the target named is T4, HEX-3 (Caenorhabditis elegans, UniProt A7DY67).
T4 sequence (A7DY67 31-591 limits assumed): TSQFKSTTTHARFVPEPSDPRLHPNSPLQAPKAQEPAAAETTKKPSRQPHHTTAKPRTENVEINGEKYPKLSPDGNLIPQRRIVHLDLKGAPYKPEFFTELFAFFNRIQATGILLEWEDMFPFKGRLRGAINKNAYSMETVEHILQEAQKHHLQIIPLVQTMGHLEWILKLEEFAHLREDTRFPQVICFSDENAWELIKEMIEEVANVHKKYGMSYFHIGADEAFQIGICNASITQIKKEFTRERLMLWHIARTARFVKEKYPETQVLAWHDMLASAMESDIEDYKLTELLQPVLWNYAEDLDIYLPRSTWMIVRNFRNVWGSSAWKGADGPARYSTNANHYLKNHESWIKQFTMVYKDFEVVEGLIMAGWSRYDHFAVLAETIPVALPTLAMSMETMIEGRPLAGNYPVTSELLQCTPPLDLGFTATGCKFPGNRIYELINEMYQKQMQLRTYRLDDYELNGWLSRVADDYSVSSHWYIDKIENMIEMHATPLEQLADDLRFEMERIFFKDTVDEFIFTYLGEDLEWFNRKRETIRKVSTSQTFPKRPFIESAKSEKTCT
The series can be described thus: GnGn-PA digestion, RP-HPLC. The class given is biochemical. The following applies: read-out: % inhibition at 200 μM.

Substrate in the series “purified protein”: CC(=O)N[C@H]1[C@H](Oc2ccc([N+](=O)[O-])cc2)O[C@H](CO)[C@@H](O)[C@@H]1O
Kind of series: purified protein.

Regarding `CC(=O)N[C@H]1/C(=N/OC(=O)Nc2ccccc2)O[C@H](CO)[C@@H](O)[C@@H]1O` [PUGNAc, O-(2-acetamido-2-deoxy-D-glucopyranosylidene)amino N-phenylcarbamate], the inhibition at 100 µM at AtHEX1 [1] was around 90%. The Ki at HEX-1 is around 2 µM. In turn, `CC(=O)N[C@H]1CN[C@H](CO)[C@@H](O)[C@@H]1O` [2-acetamido-1,2-dideoxynojirimycin, 2-acetamido-1,2,5-trideoxy-1,5-imino-D-glucitol] showed a Ki at HEX-1 of around 1000 µM. At AtHEX1 [2], the “p-nitrophenylglycoside hydrolysis assay (about 50% inhibition at 0.2 mM)” value is reported as “about 50% inhibition at 0.2”.

For `CC(=O)N[C@H]1CN2CC[C@H](O)[C@@H]2[C@@H](O)[C@@H]1O`, the inhibition at 200 µM at HEX-2 and on HEX-3 was around 80% throughout.

B1: HEX-1 (Caenorhabditis elegans) (protein)
chain: T2 sequence (Q22492 19-555 limits assumed)
For B1, in “purified protein”, the Km amounted to 1100 µM.

Usually inhibition stands for the share of the control response that was lost under treatment. The term Ki denotes the dissociation constant of the complex between target and ligand, obtained from inhibition or displacement. A higher Ki goes with lower affinity. By Km is commonly meant the substrate concentration at which the rate is half of its maximum.
